Measurements: patent US9056923B2, “Mimetic peptides derived from collagen type IV and their use for treating angiogenesis- and lymphagiogenesis-dependent diseases” (THE JOHNS HOPKINS UNIVERSITY, priority 2010, dated 2015)
Where two headings read alike, the source gives them in different places. Ends that are not written are not given here.

Experiments:
[1] = system: VEGF mediated retinal neovascularization; assay: Rho/VEGF transgenic mice model of retinal neovascularization; type: in vivo; settings: for area of retinal neovascularization in the Rho/VEGF model: 0.1 μg into a mouse eye
Experimental: The ocular Rho/VEGF transgenic mice model of wet age-related macular degeneration also was used to test some of the peptides. Transgenic mice in which the rhodopsin promoter drives expression of VEGF in photoreceptors have the onset of VEGF production at P7 and develop extensive NV along the outer surface of the retina by P21 (Okamoto et al., 1997; To be et al., 1998). Mice hemizygous for the transgene (n=15 for each dose) were given an intraocular injection of 1 μl of PBS containing 0.01, 0.1, or 1 μg of peptide or scramble peptide in one eye at P7 and P14 and at P21 the mice were anesthetized, perfused with fluorescein-labeled dextran, and the total area of neovascularization on the outer surface of the retina was measured on retinal flat mounts by image analysis as above.

[2] = system: choroidal neovascularization; assay: Laser-induced choroidal neovascularization model; type: in vivo, C57BL/6 mice; settings: 0.1 μg into a mouse eye
Experimental: The ocular laser-induced choroidal neovascularization (NV) model of wet age-related macular degeneration was used for testing. 5-6-week-old female pathogen-free C57BL/6 mice were anesthetized with ketamine hydrochloride (100 mg/kg body weight) and pupils were dilated. Laser photocoagulation (75-μm spot size, 0.1-sec duration, 120 mW) was performed in the 9, 12, and 3 o'clock positions of the posterior pole of each eye with the slit lamp delivery system of an OcuLight GL diode laser (Iridex, Mountain View, Calif.) and a handheld cover slip as a contact lens to view the retina. Production of a tissue bubble by the laser, which indicates rupture of Bruch's membrane, is an important factor in obtaining choroidal NV; therefore, only burns in which a bubble is produced are included in the study. […] At day 7 the mice that received the naked peptides were dosed again whereas the mice that received the particles were administered PBS. Intravitreous injections were done under a dissecting microscope with a Harvard Pump Microinjection System and pulled glass micropipettes. After 14 days, the mice were perfused with 1 mL of PBS containing 50 mg/mL of fluorescein-labeled dextran (2×10^6 Daltons average molecular weight; Sigma-Aldrich, St. Louis, Mo.) and choroidal flat mounts were examined by fluorescence microscopy. Images were captured with a Nikon Digital Still Camera DXM1200 (Nikon Instruments Inc., New York, N.Y.). Image analysis software (Image-Pro Plus; Media Cybernetics, Silver Spring, Md.) was used to measure the total area of choroidal NV at each rupture site with the investigator masked with respect to treatment group.

HUVEC [3] = type: cell-based, human; settings: for IC50: 3 h; for Activity in Adhesion: HUVEC, Yes/No summary, active = inhibitory potential greater than 30%
Summary of the method: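 Adhesion of 25,000 cells per well, with or without peptide, followed by real-time electrical impedance on electrode plates over 3 hours. At least two independent replicates, each run in duplicate.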

HUVEC [4] = assay: HUVEC migration assay (RT-CIM); type: cell-based, human; settings: Yes/No summary, active = inhibitory potential greater than 30%
Summary of the method: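 Real-time impedance (RT-CIM) transwell migration through fibronectin-coated (20 μg/mL) 8 μm membranes; 45,000 cells/well in serum-free medium ± peptides, fully supplemented EBM-2 as chemoattractant below. Cell index recorded over 20 h at 37 °C; ≥2 independent replicates, each in duplicate.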

HUVEC [5] = assay: HUVEC tube formation assay on Matrigel; type: cell-based, human; settings: Yes/No summary
Summary of the method: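 HUVEC (15,000/well) plated on polymerized Matrigel in complete media with or without peptide for 19 h at 37 °C. Tube networks imaged by microscopy, one random field per well, in triplicate wells across at least two independent experiments.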

HUVEC [6] = type: cell-based, human; settings: for Activity in Proliferation: Yes/No summary
Summary of the method: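 HUVEC plated at 2000 cells/well overnight, then exposed to peptides in fully supplemented medium for three days. WST-1 added in serum-free EBM-2 for four hours and absorbance read at 450 nm. Percent live cells taken relative to untreated cells in complete medium with 0.2% DMSO.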

| Molecule | area of retinal neovascularization in the Rho/VEGF model [1] | laser-induced choroidal neovascularization [2] | IC50 (HUVEC [3]) [nM] | Activity in Adhesion (HUVEC [3]) | Activity in Migration (HUVEC [4]) | Activity in Tube formation (HUVEC [5]) | inhibition of proliferation (HUVEC [6]; HUVEC) | Activity in Proliferation (HUVEC [6]; HUVEC) | IC50 (HUVEC [6]; HUVEC, tables 5, 8-10 and text, read-out: IC50 ± 95% CI (μM), proliferation) [µM] | inhibition of VEGF mediated angiogenesis ([1]; 0.1 μg administered directly into the eye) | IC50 (HUVEC [6]) [µM] | loss of activity in proliferation compared to substitution of Methionine at position 10 (HUVEC [6]; HUVEC) [fold] |
| --- | --- | --- | --- | --- | --- | --- | --- | --- | --- | --- | --- | --- |
| CC[C@H](C)[C@H](NC(=O)[C@H](CC(N)=O)NC(=O)[C@@H](NC(=O)[C@H](Cc1ccccc1)NC(=O)[C@@H](C)NC(=O)[C@H](Cc1ccccc1)NC(=O)[C@@H]1CCCN1C(=O)[C@H](CCSC)NC(=O)[C@@H](NC(=O)[C@H](CO)NC(=O)[C@H](Cc1ccccc1)NC(=O)[C@H](CCCNC(=N)N)NC(=O)[C@H](CCCNC(=N)N)NC(=O)[C@@H](N)CC(C)C)[C@@H](C)O)[C@@H](C)CC)C(=O)N[C@@H](CC(N)=O)C(=O)N[C@@H](CC(N)=O)C(=O)N[C@H](C(=O)N[C@H](C(=O)N[C@@H](CC(N)=O)C(=O)N[C@@H](Cc1ccccc1)C(N)=O)[C@@H](C)CC)C(C)C [SP2034, LRRFSTMPFdAFININNVINF] | inhibited | inhibited laser-induced choroidal neovascularization | 550 ± 370 | Yes | Yes | Yes | improved by two orders of magnitude | Yes | 0.54 ± 0.19 |  |  |  |
| CC[C@H](C)[C@H](NC(=O)[C@H](CC(N)=O)NC(=O)[C@@H](NC(=O)[C@H](Cc1ccccc1)NC(=O)[C@H](C)NC(=O)[C@H](Cc1ccccc1)NC(=O)[C@@H]1CCCN1C(=O)[C@H](CCSC)NC(=O)[C@@H](NC(=O)[C@H](CO)NC(=O)[C@H](Cc1ccccc1)NC(=O)[C@H](CCCNC(=N)N)NC(=O)[C@H](CCCNC(=N)N)NC(=O)[C@@H](N)CC(C)C)[C@@H](C)O)[C@@H](C)CC)C(=O)N[C@@H](CC(N)=O)C(=O)N[C@@H](CC(N)=O)C(=O)N[C@H](C(=O)N[C@H](C(=O)N[C@@H](CC(N)=O)C(=O)N[C@@H](Cc1ccccc1)C(N)=O)[C@@H](C)CC)C(C)C [SP2035] | inhibited | inhibited laser-induced choroidal neovascularization | 2510 ± 880 | Yes | Yes | Yes |  | Yes |  |  |  |  |
| LRRFSTAPFAFININNVINF-NH2 [SP2036] | inhibited | inhibited laser-induced choroidal neovascularization | 2750 ± 1220 | Yes | Yes | Yes |  | Yes |  | about 70% | 9.97 ± 8.3 | 10 |
